Measurements from patent publication US20240336574A1 (LATIGO BIOTHERAPEUTICS, INC., priority 2021, published 2024).
pIC50: −log10 of the molar value. Where two headings read alike, the source gives them in different places.

Molecular target: T1, recombinant human NaV1.8 stably transfected HEK cells (Homo sapiens, UniProt Q9Y5Y9)
T1 construct: expressed in transfected cells; host or cells: HEK cells, stably transfected
Experiment: Compound profiling on NaV1.8, human NaV1.8 cell line, SyncroPatch384PE automated patch clamp assay (Example 102, first set of compounds, Table 16)
Format: cell-based
Settings: human NaV1.8 HEK cells, Table 16 (first set of compounds)
Experimental: Compound Profiling on NaV1.8—Human NaV1.8 Cell Line—SyncroPatch384PE Assay
Compounds were tested on recombinant human NaV1.8 stably transfected HEK cells using the SyncroPatch384PE system, an automated patch clamp device. Cells were cultured at 37° C./5% CO2 in DMEM medium supplemented with GlutaMAX I, NEAA 1%, FBS 10% and seeded in T175 flasks. Cells were cultured at 30° C. one day prior to recording sodium currents. On the day of the recordings, cells were detached with 0.05% Trypsin-EDTA, resuspended in serum free DMEM medium and placed into the SyncroPatch384PE 6° C. pre-cooled cell hotel and shaken at 200 rpm. Intracellular solution (IC) contained, in mM: 10, CsCl; 110, CsF; 20, EGTA; 10, HEPES. Extracellular solution (EC) contained, in mM: 140, NaCl; 4, KCl; 5, Glucose; 10, HEPES; 2, CaCl2; 1, MgCl2. Washing solution contained, in mM: 40, NMDG; 100, NaCl; 4, KCl; 10, Glucose; 10, HEPES; 5, CaCl2; 1, MgCl2.
Compounds were tested in triplicate in 0.1% DMSO and 0.030% Pluronic Acid. Compounds were diluted 1:3 in EC solution to create a 10-point concentration response curve, spanning a final concentration range from 20-0.001 μM in the assay plate. Each plate contained tetracaine and another tool compound as positive controls. Up to 8 compounds were tested on one plate. 250 μM tetracaine and 0.1% DMSO were used as high and low controls, respectively. Whole cell patch clamp recordings were conducted according to Nanion's standard procedure for SyncroPatch384PE®. Cells were held at a holding potential of −120 mV. A depolarization step to 10 mV for 30 ms was applied (P1 measurement), followed by a hyperpolarization step to −100 mV for 100 ms. An inactivation step at −40 mV for 10 sec was applied before stepping to −100 mV for 20 ms, followed by a step to 10 mV for 30 ms (P2 measurement) and then back to −100 mV for 30 ms. Sweep interval was 15 sec with a sampling rate of 10 kHz. Following establishment of the whole-cell configuration in EC, two washing steps with reference buffer were performed to stabilize the baseline. Compounds were then applied by the SynchroPatch into each well and the current was recorded for five minutes in EC, followed by application of tetracaine to achieve full block at the end of the experiment. The potency of the compounds was assessed on two read-outs, resting state block (P1 measurement) or inactivated state block (P2 measurement) to obtain IC50 values. Values were normalized to high (tetracaine) and low (DMSO) controls. The IC50 values are listed in Table 16 as follows: “A” represents an IC50 less than or equal to 20 nM, “B” represents an IC50 greater than 20 nM to less than or equal to 40 nM, “C” represents an IC50 greater than 40 nM to less than or equal to 200 nM, “D” represents an IC50 greater than 200 nM to less than or equal to 500 nM.

[1] = inactivated state block (P2 measurement), read-out: P2IC50
[2] = resting state block (P1 measurement), read-out: P1IC50

T1 sequence (Q9Y5Y9 whole entry): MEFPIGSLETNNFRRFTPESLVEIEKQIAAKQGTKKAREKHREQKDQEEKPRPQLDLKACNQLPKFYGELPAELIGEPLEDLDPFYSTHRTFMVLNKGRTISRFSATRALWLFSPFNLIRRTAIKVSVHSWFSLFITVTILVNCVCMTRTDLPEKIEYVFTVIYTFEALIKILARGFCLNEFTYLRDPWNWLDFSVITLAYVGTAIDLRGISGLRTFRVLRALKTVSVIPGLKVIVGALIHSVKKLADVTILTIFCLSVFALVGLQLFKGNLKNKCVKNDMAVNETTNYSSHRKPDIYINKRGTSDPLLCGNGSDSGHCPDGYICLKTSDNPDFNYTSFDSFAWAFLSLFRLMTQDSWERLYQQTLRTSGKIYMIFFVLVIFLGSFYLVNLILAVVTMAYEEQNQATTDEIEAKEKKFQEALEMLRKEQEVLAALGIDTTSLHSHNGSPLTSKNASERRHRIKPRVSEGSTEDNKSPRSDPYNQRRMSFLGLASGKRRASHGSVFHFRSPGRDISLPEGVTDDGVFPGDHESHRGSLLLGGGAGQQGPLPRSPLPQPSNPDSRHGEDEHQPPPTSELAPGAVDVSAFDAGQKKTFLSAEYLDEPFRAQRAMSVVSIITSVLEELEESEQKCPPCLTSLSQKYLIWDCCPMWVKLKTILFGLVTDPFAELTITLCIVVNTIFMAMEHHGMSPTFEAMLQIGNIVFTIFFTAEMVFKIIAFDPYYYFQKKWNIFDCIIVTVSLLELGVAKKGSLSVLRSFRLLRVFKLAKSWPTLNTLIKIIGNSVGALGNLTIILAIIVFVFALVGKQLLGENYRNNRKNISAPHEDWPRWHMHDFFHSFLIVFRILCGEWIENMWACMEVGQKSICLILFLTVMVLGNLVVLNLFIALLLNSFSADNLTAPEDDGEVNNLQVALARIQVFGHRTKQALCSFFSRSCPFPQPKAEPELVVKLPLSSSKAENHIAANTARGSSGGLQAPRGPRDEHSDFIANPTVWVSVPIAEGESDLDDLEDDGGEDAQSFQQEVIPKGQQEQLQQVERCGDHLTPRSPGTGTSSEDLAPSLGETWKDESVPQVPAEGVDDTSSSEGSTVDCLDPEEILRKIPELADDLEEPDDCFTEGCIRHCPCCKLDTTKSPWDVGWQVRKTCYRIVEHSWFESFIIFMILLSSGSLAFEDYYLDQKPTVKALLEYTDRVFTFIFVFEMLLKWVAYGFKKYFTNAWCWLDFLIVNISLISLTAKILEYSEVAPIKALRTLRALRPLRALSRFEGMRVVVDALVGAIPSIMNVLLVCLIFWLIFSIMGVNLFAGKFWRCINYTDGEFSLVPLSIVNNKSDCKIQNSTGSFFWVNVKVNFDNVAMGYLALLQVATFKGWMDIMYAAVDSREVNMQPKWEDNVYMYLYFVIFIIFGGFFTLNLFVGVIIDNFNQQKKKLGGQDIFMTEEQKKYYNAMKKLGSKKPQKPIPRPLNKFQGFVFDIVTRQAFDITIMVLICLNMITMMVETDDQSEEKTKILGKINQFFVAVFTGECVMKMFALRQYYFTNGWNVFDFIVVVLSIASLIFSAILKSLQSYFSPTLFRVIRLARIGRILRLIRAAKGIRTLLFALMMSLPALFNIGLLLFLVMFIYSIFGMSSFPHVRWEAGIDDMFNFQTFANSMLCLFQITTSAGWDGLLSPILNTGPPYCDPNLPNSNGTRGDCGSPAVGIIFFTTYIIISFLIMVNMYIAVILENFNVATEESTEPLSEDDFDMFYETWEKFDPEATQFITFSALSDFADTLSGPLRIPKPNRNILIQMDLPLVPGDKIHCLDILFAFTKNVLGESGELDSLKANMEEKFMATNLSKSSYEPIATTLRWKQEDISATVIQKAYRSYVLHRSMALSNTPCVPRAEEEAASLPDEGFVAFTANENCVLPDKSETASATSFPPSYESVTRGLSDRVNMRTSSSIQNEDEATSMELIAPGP

Row | SMILES | pIC50 [1] | pIC50 [2]
1 | COc1c(Oc2nnc(C(F)(F)F)c(C)c2C(=O)Nc2cccc(S(C)(=O)=O)c2)ccc(Cl)c1F [Compound 1552, 3-(4-chloro-3-fluoro-2-methoxy-phenoxy)-5-methyl-N-(3-methylsulfonylphenyl)-6-(trifluoromethyl)pyridazine-4-carboxamide] | ≥ 7.70 | ≥ 7.70
2 | Cc1c(C(F)(F)F)nnc(Oc2ccc(OC3CCC3)c(F)c2F)c1C(=O)Nc1cccc(S(C)(=N)=O)c1 (single isomer, unassigned) [Compound 1494, 3-(4-cyclobutoxy-2,3-difluorophenoxy)-N-{3-[imino(methyl)oxo-λ^6-sulfanyl]phenyl}-5-methyl-6-(trifluoromethyl)pyridazine-4-carboxamide] | 7.40 to 7.70 | ≥ 7.70
3 | COc1cc(C#N)ccc1Oc1nnc(C(F)(F)F)c(C)c1C(=O)Nc1cccc(C(=O)NCCO)c1 [Compound 1441, 3-(4-cyano-2-methoxy-phenoxy)-N-[3-(2-hydroxyethylcarbamoyl)phenyl]-5-methyl-6-(trifluoromethyl)pyridazine-4-carboxamide] | 6.30 to 6.70 | 6.30 to 6.70
4 | COc1cc(C#N)ccc1Oc1nnc(C(F)(F)F)c(C)c1C(=O)Nc1cnc(C(N)=O)s1 [Compound 1538, 5-[[3-(4-cyano-2-methoxy-phenoxy)-5-methyl-6-(trifluoromethyl)pyridazine-4-carbonyl]amino]thiazole-2-carboxamide] | 6.70 to 7.40 | 6.70 to 7.40
5 | NC(=O)c1cccc(NC(=O)c2cc(C(F)(F)F)cnc2Oc2ccc(OC(F)F)cc2)c1 [Compound 1635] | 6.70 to 7.40 | 6.70 to 7.40
6 | CS(=N)(=O)c1cccc(NC(=O)c2cc(C(F)(F)F)cnc2Oc2cccnc2OC(F)(F)F)c1 (single isomer, unassigned) [Compound 1643] | – | ≥ 7.70
7 | COc1cc(C#N)ccc1Oc1ncc(C2=CCOCC2)cc1C(=O)Nc1cccc(S(C)(=N)=O)c1 (centres unmarked) [Compound 1726, 2-(4-cyano-2-methoxy-phenoxy)-5-(3,6-dihydro-2H-pyran-4-yl)-N-[3-(methylsulfonimidoyl)phenyl]pyridine-3-carboxamide] | 6.30 to 6.70 | 6.30 to 6.70
8 | Cc1nc(Br)ccc1Oc1nnc(C(F)(F)F)c(C)c1C(=O)Nc1cccc(S(C)(=O)=O)c1 [Compound 1469, 3-[(6-bromo-2-methylpyridin-3-yl)oxy]-N-(3-methanesulfonylphenyl)-5-methyl-6-(trifluoromethyl)pyridazine-4-carboxamide] | ≥ 7.70 | ≥ 7.70
9 | CS(=O)(=O)c1cccc(NC(=O)c2cc(C(F)(F)F)cnc2Oc2cc(OC(F)(F)F)ccc2F)c1 [Compound 1658] | 6.70 to 7.40 | 6.30 to 6.70
10 | COc1c(Oc2nnc(C)c(C)c2C(=O)Nc2cccc(S(C)(=N)=O)c2)ccc(F)c1F (centres unmarked) [Compound 1435, 3-(3,4-difluoro-2-methoxyphenoxy)-5,6-dimethyl-N-(3-(S-methylsulfonimidoyl)phenyl)pyridazine-4-carboxamide] | 6.30 to 6.70 | 6.30 to 6.70
11 | Cc1c(C(F)(F)F)nnc(Oc2ccc(OC3CCC3)c(F)c2F)c1C(=O)Nc1cccc(S(C)(=N)=O)c1 (single isomer, unassigned) [Compound 1493, 3-(4-cyclobutoxy-2,3-difluorophenoxy)-N-{3-[imino(methyl)oxo-λ^6-sulfanyl]phenyl}-5-methyl-6-(trifluoromethyl)pyridazine-4-carboxamide] | ≥ 7.70 | ≥ 7.70
12 | COc1c(Oc2ncc(C(F)(F)F)cc2C(=O)Nc2cccc(S(C)(=N)=O)c2)ccc(F)c1F (centres unmarked) [Compound 1630] | ≥ 7.70 | ≥ 7.70
13 | Cc1c(C(F)(F)F)nnc(Oc2ccc(OC(F)(F)F)cc2F)c1C(=O)Nc1cccc(S(C)(=N)=O)c1 (single isomer, unassigned) [Compound 1496, 3-[2-fluoro-4-(trifluoromethoxy)phenoxy]-N-{3-[imino(methyl)oxo-λ^6-sulfanyl]phenyl}-5-methyl-6-(trifluoromethyl)pyridazine-4-carboxamide] | ≥ 7.70 | ≥ 7.70
14 | CSc1cccc(NC(=O)c2cc(Br)cnc2Oc2ccc(F)cc2C)c1 [Compound 1577] | 6.30 to 6.70 | 6.30 to 6.70
15 | CS(=O)(=O)c1cccc(NC(=O)c2cc(C(F)(F)F)cnc2OCCC(F)(F)F)c1 [Compound 1604] | 6.30 to 6.70 | 6.70 to 7.40
16 | COc1nc(Br)ccc1Oc1ncc(C(F)(F)F)cc1C(=O)Nc1cccc(S(C)(=N)=O)c1 (centres unmarked) [Compound 1685] | ≥ 7.70 | ≥ 7.70
17 | COc1cc(C#N)ccc1Oc1nnc(C2CC2(F)F)c(C)c1C(=O)Nc1cccc([S@@](C)(=N)=O)c1 (stereo partly drawn) [Compound 1528, 3-(4-cyano-2-methoxyphenoxy)-6-(2,2-difluorocyclopropyl)-N-{3-[(S)-imino(methyl)oxo-λ^6-sulfanyl]phenyl}-5-methylpyridazine-4-carboxamide] | 6.70 to 7.40 | 6.70 to 7.40
18 | CC(C)(O)c1ccc(Oc2ncc(C(F)(F)F)cc2C(=O)Nc2cccc(S(C)(=O)=O)c2)c(F)c1 [Compound 1664] | 6.30 to 6.70 | 6.30 to 6.70
19 | Cc1cc(F)ccc1Oc1ncc(C(F)(F)F)c(C)c1C(=O)Nc1cccc(S(C)(=N)=O)c1 (centres unmarked) [Compound 1557, 2-(4-fluoro-2-methylphenoxy)-4-methyl-N-(3-(S-methylsulfonimidoyl)phenyl)-5-(trifluoromethyl)nicotinamide] | ≥ 7.70 | ≥ 7.70
20 | CSc1cccc(NC(=O)c2cc(C#N)cnc2Oc2ccc(F)cc2C)c1 [Compound 1579] | 6.30 to 6.70 | 6.30 to 6.70
21 | COc1c(Oc2ncc(C#N)cc2C(=O)Nc2cccc(S(C)(=N)=O)c2)ccc(F)c1F (centres unmarked) [Compound 1723, 5-cyano-2-(3,4-difluoro-2-methoxy-phenoxy)-N-[3 (methylsulfonimidoyl)phenyl]pyridine-3-carboxamide] | 7.40 to 7.70 | 7.40 to 7.70
22 | Cc1cc(C(F)(F)F)c(C)cc1Oc1ncc(C(F)(F)F)cc1C(=O)Nc1cccc(S(C)(=O)=O)c1 [Compound 1616] | 6.30 to 6.70 | 6.30 to 6.70
23 | COc1cc(C#N)ccc1Oc1nnc(-c2ccccn2)c(C)c1C(=O)Nc1cccc(S(C)(=N)=O)c1 (centres unmarked) [Compound 1458, 3-(4-cyano-2-methoxyphenoxy)-5-methyl-N-(3-(S-methylsulfonimidoyl)phenyl)-6-(pyridin-2-yl)pyridazine-4-carboxamide] | 6.30 to 6.70 | 6.30 to 6.70
24 | COc1ccc(Oc2ncc(C(F)(F)F)cc2C(=O)Nc2cccc(S(C)(=N)=O)c2)cc1F (centres unmarked) [Compound 1640] | 6.30 to 6.70 | 6.30 to 6.70
25 | CC(C#N)Oc1cc(F)c(Oc2ncc(C(F)(F)F)cc2C(=O)Nc2cccc(S(C)(=N)=O)c2)cc1F (centres unmarked) [Compound 1689] | 6.70 to 7.40 | 6.70 to 7.40
26 | Cc1nn(C)cc1Oc1ncc(C(F)(F)F)cc1C(=O)Nc1cccc(S(C)(=N)=O)c1 (centres unmarked) [Compound 1590] | 6.30 to 6.70 | 6.30 to 6.70
27 | COc1ncc(C#N)cc1Oc1ncc(C(F)(F)F)cc1C(=O)Nc1cccc(S(C)(=N)=O)c1 (centres unmarked) [Compound 1623] | 6.30 to 6.70 | 6.30 to 6.70
28 | COc1cc(C#N)ccc1Oc1nnc(C(F)(F)F)c(C)c1C(=O)Nc1cccc(C(=O)N2CC(O)C2)c1 [Compound 1437, 3-(4-cyano-2-methoxy-phenoxy)-N-[3-(3-hydroxyazetidine-1-carbonyl)phenyl]-5-methyl-6-(trifluoromethyl)pyridazine-4-carboxamide] | 6.70 to 7.40 | 6.70 to 7.40
29 | CS(=O)(=O)c1cccc(NC(=O)c2cc(C(F)(F)F)cnc2Oc2cccc(S(C)(=O)=O)c2)c1 [Compound 1718, 2-(3-methylsulfonylphenoxy)-N-(3-methylsulfonylphenyl)-5-(trifluoromethyl)pyridine-3-carboxamide] | 6.30 to 6.70 | 6.30 to 6.70
30 | CC#Cc1nnc(Oc2ccc(F)cc2C)c(C(=O)Nc2cccc(S(C)(=N)=O)c2)c1C (centres unmarked) [Compound 1434, 3-(4-Fluoro-2-methylphenoxy)-5-methyl-N-(3-(S-methylsulfonimidoyl)phenyl)-6-(prop-1-yn-1-yl)pyridazine-4-carboxamide] | 6.30 to 6.70 | 6.30 to 6.70
